According to patent US9902716B2, “Fluorinated benzofuranyl-pyrimidine derivatives containing a sulfone group” (Bayer Pharma Aktiengesellschaft, priority 2014, dated 2018):

What was measured:
[1] = test system: MOLM-13 cells; assay: Proliferation assay MOLM-13 (Method 3, Cell Titre-Glo); type: cell-based; conditions: Homo sapiens; MOLM-13, 72-hour exposure; read-out: Inhibition of MOLM-13 cell proliferation IC50
Protocol: Non-adherent MOLM-13 human acute myeloid leukemia cells (DSMZ ACC 554) were seeded at a density of 5,000 cells/well in a 96-well multititer plate in 100 μL of growth medium supplemented 10% fetal calf serum. After 24 hours, cell viability of one plate (zero-point plate) was determined with the Cell Titre-Glo Luminescent Cell Viability Assay (Promega), while 50 μL of test compound containing medium was added to the wells of the other plates (final concentrations in the range of 0.001-10 μM and DMSO controls; the final concentration of the solvent dimethyl sulfoxide was 0.5%). Cell viability was assessed after 72-hour exposure with the Cell Titre-Glo Luminescent Cell Viability Assay (Promega). IC50 values (inhibitory concentration at 50% of maximal effect) were determined by means of a 4 parameter fit on measurement data which were normalized to vehicle (DMSO) treated cells (=100%) and measurement readings taken immediately before compound exposure (=0%).

[2] = test system: A2780 cells; assay: Proliferation assay A2780 (Method 3, crystal violet); type: cell-based; conditions: Homo sapiens, 96 h; A2780, 4 days incubation; read-out: Inhibition of A2780 cell proliferation IC50
Protocol: Cultivated tumour cells (HeLa, human cervical tumour cells, ATCC CCL-2; NCI-H460, human non-small cell lung carcinoma cells, ATCC HTB-177; A2780, human ovarian carcinoma cells, ECACC #93112519; DU 145, hormone-independent human prostate carcinoma cells, ATCC HTB-81; HeLa-MaTu-ADR, multidrug-resistant human cervical carcinoma cells, EPO-GmbH Berlin; Caco-2, human colorectal carcinoma cells, ATCC HTB-37; B16F10, mouse melanoma cells, ATCC CRL-6475) were plated at a density of 5,000 cells/well (DU145, HeLa-MaTu-ADR), 3,000 cells/well (NCI-H460, HeLa), 2,500 cells/well (A2780), 1,500 cells/well (Caco-2), or 1,000 cells/well (B16F10) in a 96-well multititer plate in 200 μL of their respective growth medium supplemented 10% fetal calf serum. […] Cell proliferation was determined by staining the cells with crystal violet: the cells were fixed by adding 20 μl/measuring point of an 11% glutaric aldehyde solution for 15 minutes at room temperature. […] The extinction was determined by photometry at a wavelength of 595 nm. The change of cell number, in percent, was calculated by normalization of the measured values to the extinction values of the zero-point plate (=0%) and the extinction of the untreated (0 μm) cells (=100%). […]

IC50 [1] [nM]	IC50 [2] [nM]	SMILES
170	90	CS(=O)(=O)Cc1cccc(Nc2ncc(F)c(-c3ccc(F)c4ccoc34)n2)c1 [Example 1, 5-Fluoro-4-(4-fluoro-1-benzofuran-7-yl)-N-{3-[(methylsulfonyl)methyl]-phenyl}pyrimidin-2-amine]
46	38	Cc1cc(CS(C)(=O)=O)cc(Nc2ncc(F)c(-c3ccc(F)c4ccoc34)n2)c1 [Example 4, 5-Fluoro-4-(4-fluoro-1-benzofuran-7-yl)-N-{3-methyl-5-[(methylsulfonyl)methyl]-phenyl}pyrimidin-2-amine]
